Measured values as given in US20260355142A1, “AMORPHOUS OTE[…] COMPOSITIONS AND USES THEREOF AND DOSAGE REGIMENS FOR OTENAPROXESUL” (ANTIBE THERAPEUTICS INC., priority 2022, published 2026).
“Also recorded” adds a separate entry of the source.

How the values were obtained:
[1] = Phase 1 SAD/MAD clinical trial, safety and tolerability; type: in vivo, human
Experimental: Otenaproxesul (crystalline form) was orally administered at a range of doses to healthy volunteers, both as a single dose, and as a daily (or twice-daily) dose for 14 days. Each cohort consisted of 8 subjects, with 6 receiving otenaproxesul and 2 receiving placebo. A total of 8 cohorts were studied in the single-dose study (25 mg, 75 mg, 150 mg, 300 mg, 500 mg, 1000 mg, 1500 mg and 2000 mg), and 3 cohorts in the multiple-dose study (250 and 750 once daily, and 750 mg bid (e.g., 1500 mg/day) for 14 days). All adverse events were recorded, and blood samples were drawn prior to and for at least 72 h after drug administration for measurement of otenaproxesul-derived naproxen levels. Routine cardiovascular, renal, hepatic and hematological biomarkers were monitored, along with clinical signs. Multiple ascending dose studies examined otenaproxesul at doses of 250 and 750 mg once daily, and 750 mg twice daily.

[2] = test system: osteoarthritis of the knee; assay: Phase 2b study, change in WOMAC subscale scores in osteoarthritis of the knee; type: in vivo, human; conditions: for WOMAC pain, stiffness and DPDA subscale scores: Baseline to Day 14
Experimental: This study evaluated the efficacy of a 14-day dosing regimen of crystalline otenaproxesul at doses of 150 mg, 200 mg and 250 mg compared to placebo in reducing osteoarthritis knee pain (a chronic pain condition) as measured by changes in the post-treatment Western Ontario and McMaster Universities Osteoarthritis Index (WOMAC) subscale pain score relative to each patient's pretreatment baseline WOMAC assessment. In patients with bilateral knee osteoarthritis, the most painful knee (index knee) or if in both knees of equal pain, then 1 index knee was noted and has been used for the WOMAC assessments throughout the study. The three doses were selected based on state-of-the-art knowledge of efficacy and safety for otenaproxesul at the time of the trial.
This study was a double-blind, placebo-controlled Phase 2B study that explored 3 different doses (150 mg, 200 mg, and 250 mg) of orally administered crystalline otenaproxesul in male and female patients diagnosed with osteoarthritis of the knee. Patients were randomly assigned in a 2:2:1:1 allocation ratio to otenaproxesul 250 mg, 200 mg, 150 mg, or placebo.
(§1) Study visits occurred on Day 1, Day 4, and Day 14 of the 14-day treatment phase and included WOMAC evaluations, blood samples for thromboxane B2 TXB2 and pharmacokinetic (PK) testing. The safety of otenaproxesul was evaluated through monitoring for adverse events (AEs), changes in physical examinations, vital signs measurements, and clinical laboratory evaluations.
The efficacy of treatment with otenaproxesul was assessed by measuring the change in the WOMAC VAS version 3.1 subscale pain, stiffness, and difficulties performing daily activities (DPDA) scores after 14 days relative to each patient's pretreatment baseline WOMAC score.
All patients who received 1 dose of study drug (otenaproxesul or placebo) and had at least 1 post-baseline WOMAC pain subscale score observation were included in the primary population for the analysis of efficacy (modified-intent-to-treat population [mITT]). Patients who met the criteria for the primary efficacy analyses and had no major protocol violations that could have impacted the assessment of efficacy (per protocol population [PP]) were evaluated as a supportive analysis. The primary and secondary endpoints were analyzed using a maximum likelihood mixed model repeated measure (MMRM). The model included treatment, visit, baseline WOMAC pain score, and treatment-by-visit interaction as fixed effects, and patient as a random effect. Dose-response analysis was conducted by using a contrast statement to the least squares (LS) means on Day 14 between the dose levels of otenaproxesul and placebo. For patients who received rescue medication within 12 hours before an efficacy assessment, the assessments at that visit were disregarded and considered missing. Analysis of the WOMAC pain subscale score, including the MMRM analysis and descriptive summary, were also presented by sex (male, female) in a subgroup analysis.

[3] = Phase 2b study, safety (treatment-emergent adverse events); type: in vivo, human; conditions: for hypertension or blood pressure increased: 2 patients
Experimental: as §1
Patients were followed for safety for up to 24 days following initiation of treatment. A final visit for safety assessments occurred upon study completion on Day 24 or early termination.
All patients receiving any amount of study treatment (otenaproxesul or placebo) were included in the safety analysis. Each treatment arm was evaluated separately. In addition to the evaluation and categorization of treatment-emergent adverse events (TEAEs), listings of laboratory test results collected at Baseline and during the study were generated. Descriptive statistics summarizing the changes in those laboratory tests over time were presented.

ALT and AST = assay: Analysis of liver transaminase elevations over the clinical studies; type: in vivo, human
Experimental: These LTEs were detected after the patients had completed their full treatment course.
When liver safety findings are observed, cumulative naproxen metabolite plasma drug exposure over the prescribed treatment period exceeded 4000 μg*hr/mL.

[4] = Rat pharmacokinetics of otenaproxesul amorphous dispersion (Example 19); type: in vivo, Rats; conditions: HED 260 mg once daily
Experimental: Rats were administered five treatment doses of the otenaproxesul amorphous solid dispersion (i.e., exemplary ASD no. 1 (35% drug: 65% polymer by weight)) and a crystalline otenaproxesul control dose. […] One group of rats was administered a human equivalent dose of 208 mg twice daily (416 mg total daily dose). Crystalline otenaproxesul was administered at the no observed adverse effect level (NOAEL) dose equivalent to a human dose of 260 mg once daily.
Pharmacokinetic data was evaluated on M25 plasma naproxen concentrations at 60 minutes post administration, Day 1 M25 plasma exposure (AUC0-24) and Day 4 M25 plasma exposure (AUC0-Last). Assessment of dose proportional characteristics for both M25 plasma concentration and AUC exposure were measured.
The human equivalent dose (HED) is related to the administered rat dose by an allometric scaling formula, for example: HED (mg)=([rat dose in mg/kg×0.16]×65 kg).

[5] = single dose, oral, 25 mg to 2000 mg, crystalline

## COc1ccc2cc([C@H](C)C(=O)Oc3ccc(C(N)=S)cc3)ccc2c1 [otenaproxesul, (S)-4-carbamothioylphenyl 2-(6-methoxynaphthalen-2-yl) propanoate]
[1]; all single, once daily administered dose levels
  tolerability: very well tolerated and shown to be safe
[1]; [5]
  gastrointestinal, cardiovascular, renal or hematological findings: nor were there any significant gastrointestinal, cardiovascular renal, or hematological findings
  serious adverse events: did not produce any serious adverse events
[2]; 150 mg daily
  reduction in pain, stiffness and DPDA: positive reduction in pain, stiffness and DPDA
[2]; 150 mg once daily, 95% CI −60.3, −36.6
  actual mean change in WOMAC stiffness score, Baseline to Day 14: −48.4 mm
[2]; 150 mg, Day 14
  decrease in WOMAC DPDA score vs placebo: not statistically significant
  decrease in WOMAC pain score vs placebo: not statistically significant
[2]; 200 mg once daily, 95% CI −62.6, −46.3
  LS mean change in WOMAC stiffness score, Baseline to Day 14: −54.4 mm
[2]; 200 mg once daily, 95% CI −159.3, −120.6
  LS mean change in WOMAC pain score, Baseline to Day 14: −139.9 mm
[2]; 200 mg once daily, 95% CI −502.9, 374.1 (so in the source)
  LS mean change in WOMAC DPDA score, Baseline to Day 14: −438.5 mm
[2]; 250 mg once daily, 95% CI −63.5, −47.8
  LS mean change in WOMAC stiffness score, Baseline to Day 14: −55.6 mm
[2]; 250 mg once daily, 95% CI −154.0, −116.6
  LS mean change in WOMAC pain score, Baseline to Day 14: -135 mm
[2]; 250 mg once daily, 95% CI −475.1, −350.7
  LS mean change in WOMAC DPDA score, Baseline to Day 14: −412.9 mm
[2]; 250 mg, Day 14
  patients having at least a 30% reduction in WOMAC pain scores: 63.4%
  patients having at least a 50% reduction in WOMAC pain scores: 43.5%
[2]
  WOMAC pain, stiffness and DPDA subscale scores: clinically and statistically significant improvement
[2]; men, 200 mg, Day 14
  decreases in WOMAC stiffness and DPDA scores: reached statistical significance
[2]; women, 250 mg and 200 mg, Day 14
  decreases in WOMAC pain, stiffness and DPDA scores vs placebo: reached statistical significance
[3]; 150 mg
  hypertension or hypotension events: No patients
  patients with TEAEs: 37.7%
[3]; 200 mg, 1 patient
  hypotension: 0.8%
[3]; 200 mg
  hypertension or blood pressure increased: 1.6%
[3]; 250 mg
  patients with TEAEs: 43.9%
  hypertension or blood pressure increased: 1.5%
[3]; all otenaproxesul groups
  TEAE headache: 5.0%
  TEAE hepatic enzyme increased: 8.2%
  patients with at least 1 TEAE: 40.9%
[3]; all otenaproxesul groups, 14-day treatment
  gastrointestinal disorder TEAEs: 14.5%
[3]; all three doses, 14 days
  tolerability: well tolerated at all three administered doses
[3]; all three treatment arms
  discontinuation due to gastrointestinal TEAEs: none were discontinued due to TEAEs related to gastrointestinal adverse effects
[3]; one patient, 200 mg for 14 days, Day 24
  serum creatinine: 1.5 ×ULN
ALT and AST; multiple dose 150, 200 or 250 mg for seven days
  adverse liver effects (transient elevations of liver transaminases): no observed adverse liver effects
ALT and AST; multiple dose 150, 200 or 250 mg, 14 days or less
  liver transaminase elevations: not detected
ALT and AST; over the prescribed treatment
  cumulative plasma naproxen exposure at which LTEs are not observed: ≤ 4000 µg·h/mL
ALT and AST; over the prescribed treatment period
  cumulative naproxen plasma exposure when liver safety findings are observed: exceeded 4000 μg*hr/mL
ALT and AST; phase 2 study
  patients with dose-related liver transaminase elevation: approximately 10%
ALT and AST; single dose 25 mg to 2000 mg (crystalline)
  liver transaminase elevations: not detected; also recorded: no observed adverse liver effects

## COc1ccc2cc([C@H](C)C(=O)Oc3ccc(C(N)=S)cc3)ccc2c1 [crystalline otenaproxesul]
[2]
  WOMAC pain, stiffness and DPDA subscale scores: clinically and statistically significant improvement
[4]; female rats
  AUC increase between Day 1 and Day 4: 60%
[4]; male rats
  AUC increase between Day 1 and Day 4: 30%
